Data on one compound can be found in patent publication US20250319019A1, “BUCCOMUCOADHESIVE PATCH-BASED DRUG DELIVERY SYSTEM FOR TACROLIMUS” (priority 2022, published 2025).

A short description of series [1]: In-vivo pharmacokinetic evaluation, single dose. The following applies: New Zealand White, whole blood. The arrangement: species or system New Zealand White rabbits. As to the method: The study was performed in New Zealand White rabbits as per the CPCSEA guidance. Overnight fasted animals were anaesthetised with Ketamine (30-40 mg/kg) and Xylazine (10 mg/kg) and 1 mg BAPTac patch was administered on the buccal surface of the oral cavity. The control group was administered 1 mg tacrolimus in PBS and 30% Ethanol. 0.5-0.75 ml of blood was taken from each rabbit via the marginal ear vein using 23 gauge needles through a butterfly cannula. The blood samples were collected before initiation of the treatment and after the administration of oral Tacrolimus or Tacrolimus-SLN-loaded buccal patch at time intervals of 15 min, 30 min, 1 h, 1.5 h, 2 h, 4 h, 6 h, 8 h, 12 h and 24 hours for the single dose PK study. Blood samples were collected in EDTA tubes, aliquoted and stored in amber-coloured tubes at −80° C. until quantification by LC-MS/MS.

For series [2] the following is noted: poor and variable, intestinal absorption; background statement; cited from earlier work.

As to `C=CC[C@@H]1/C=C(\C)C[C@H](C)C[C@H](OC)[C@H]2O[C@@](O)(C(=O)C(=O)N3CCCC[C@H]3C(=O)O[C@H](/C(C)=C/[C@@H]3CC[C@@H](O)[C@H](OC)C3)[C@H](C)[C@@H](O)CC1=O)[C@H](C)C[C@@H]2OC` (relative stereo) [Tacrolimus, [3S[3R*[E(1S*,3S*,4S*)],4S*,5R*,8S*,9E,12R*,14R*,15S*,16R*,18S*,19S*, 26aR*]]5,6,8,11,12,13,14,15,16,17,18,19,24,25,26,26a-hexadecahydro-5,19-dihydroxy-3-[2-(4-hydroxy-3-methoxycyclohexyl)-1-methylethenyl]-14,16-dimethoxy-4,10,12,18-tetramethyl-8-(2-propenyl)-15,19-epoxy-3H-pyrido[2,1-c][1,4]oxaazacyclotricosine-1,7,20,21(4H,23H)-tetrone, monohydrate], the concentration at 0.25 h in series [1] (1 mg, heading: Average Tac conc., rabbit blood, 0.25 (15 mins) after single 1 mg dose (oral or buccal patch), LC-MS/MS) was 3.6 ng/mL. In series [1] (1 mg, heading: Average Tac conc., rabbit blood, 0.5 (30 mins) after single 1 mg dose (oral or buccal patch)), this compound had a concentration at 0.5 h of 12.3 ng/mL. The concentration at 1 h in series [1] (1 mg, heading: Average Tac conc., rabbit blood, 1.0 (60 mins) after single 1 mg dose (oral or buccal patch)) was 17.2 ng/mL. In series [1] (1 mg, heading: Average Tac conc., rabbit blood, 1.5 (90 mins) after single 1 mg dose (oral or buccal patch)), this compound yielded a concentration at 1.5 h of 46.9 ng/mL. Moreover, in series [1] (1 mg, heading: Average Tac conc., rabbit blood, 2.0 (120 mins) after single 1 mg dose (oral or buccal patch)), the concentration at 2 h was determined as 31.3 ng/mL. In series [1] (1 mg, heading: Average Tac conc., rabbit blood, 4.0 (240 mins) after single 1 mg dose (oral or buccal patch)), this compound returned a concentration at 4 h of 14.5 ng/mL. The same compound registered a concentration at 6 h in series [1] (1 mg, heading: Average Tac conc., rabbit blood, 6.0 (480 mins) after single 1 mg dose (oral or buccal patch)) of 12.3 ng/mL. The compound further displayed a concentration at 8 h in series [1] (1 mg, heading: Average Tac conc., rabbit blood, 8.0 (640 mins) after single 1 mg dose (oral or buccal patch)) of 11.8 ng/mL. For the same compound, in series [1] (1 mg, heading: Average Tac conc., rabbit blood, 12.0 (720 mins) after single 1 mg dose (oral or buccal patch)), the concentration at 12 h worked out at 7.9 ng/mL. The compound further yielded a concentration at 24 h in series [1] (1 mg, heading: Average Tac conc., rabbit blood, 24.0 (1440 mins) after single 1 mg dose (oral or buccal patch)) of 2.4 ng/mL. The half-life in series [1] (rabbit, single 1 mg dose (oral or buccal patch), read-out: Elimination t1/2 (converted)) was 2.73 ± 2.9 h. Besides, in series [1] (rabbit, single 1 mg dose (oral or buccal patch), read-out: Mean AUC0-24), the AUC(0-t) turned out to be 250 ± 78.2 ng·h/mL. Moreover, the “bioavailability (average)” value in series [2] was 25%.
